Assay results from patent publication US8642770B2, “Indole derivative” (Takeda Pharmaceutical Company Limited, priority 2010, dated 2014).

First: Cc1c(CNCC2CCOCC2)[nH]c2ccc(NC(=O)c3ccc(OC[C@@H]4CCCO4)cc3)cc12 [Example 33, N-(3-methyl-2-{[(tetrahydro-2H-pyran-4-ylmethyl)amino]methyl}-1H-indol-5-yl)-4-[(2S)-tetrahydrofuran-2-ylmethoxy]benzamide]
Second: Cc1c(NC(=O)c2ccc(OC[C@@H]3CCCO3)cc2)ccc2[nH]c(CNCC3CCOCC3)cc12 [Example 47, N-(4-methyl-2-{[(tetrahydro-2H-pyran-4-ylmethyl)amino]methyl}-1H-indol-5-yl)-4-[(2S)-tetrahydrofuran-2-ylmethoxy]benzamide]
The melting point of the first is lower: 146 to 147 °C for the first, 166 to 167 °C for the second.

First: Cc1c(CNCC(C)C)n(C)c2ccc(NC(=O)c3ccc(OC[C@@H]4CCCO4)cc3)cc12 [Example 34, N-(2-{[(2-methylpropyl)amino]methyl}-1,3-dimethyl-1H-indol-5-yl)-4-[(2S)-tetrahydrofuran-2-ylmethoxy]benzamide]
Second: Cc1c(CNCC(C)C)n(C)c2ccc(NC(=O)c3ccc(OCC4CC4)cc3)cc12 [Example 39, 4-(cyclopropylmethoxy)-N-(2-{[(2-methylpropyl)amino]methyl}-1,3-dimethyl-1H-indol-5-yl)benzamide]
The melting point of the first is higher: 145 to 146 °C for the first, 142 to 143 °C for the second.

First: Cc1c(CNCC2CCOCC2)n(C)c2ccc(NC(=O)c3ccc(OC[C@@H]4CCCO4)cc3)cc12 [Example 35, N-(1,3-dimethyl-2-{[(tetrahydro-2H-pyran-4-ylmethyl)amino]methyl}-1H-indol-5-yl)-4-[(2S)-tetrahydrofuran-2-ylmethoxy]benzamide]
Second: Cc1c(CNCC2CCOCC2)n(C)c2ccc(NC(=O)c3ccc(OCC4CC4)cc3)cc12 [Example 40, 4-(cyclopropylmethoxy)-N-(1,3-dimethyl-2-{[(tetrahydro-2H-pyran-4-ylmethyl)amino]methyl}-1H-indol-5-yl)benzamide]
The melting point of the first is higher: 185 to 186 °C for the first, 176 to 177 °C for the second.

First: Cc1c(CNCC(C)(C)O)n(C)c2ccc(NC(=O)c3ccc(OC[C@@H]4CCCO4)cc3)cc12 [Example 36, N-(2-{[(2-hydroxy-2-methylpropyl)amino]methyl}-1,3-dimethyl-1H-indol-5-yl)-4-[(2S)-tetrahydrofuran-2-ylmethoxy]benzamide]
Second: Cc1c(CNCC(C)(C)C)n(C)c2ccc(NC(=O)c3ccc(OC[C@@H]4CCCO4)cc3)cc12 [Example 37, N-(2-{[(2,2-dimethylpropyl)amino]methyl}-1,3-dimethyl-1H-indol-5-yl)-4-[(2S)-tetrahydrofuran-2-ylmethoxy]benzamide]
The melting point of the first is lower: 145 to 146 °C for the first, 165 to 166 °C for the second.

Compared with `Cc1c(CN[C@H]2CC[C@](C)(O)CC2)n(C)c2ccc(NC(=O)c3ccc(OC[C@@H]4CCCO4)cc3)cc12` [Example 38, N-(2-{[(trans-4-hydroxy-4-methylcyclohexyl)amino]methyl}-1,3-dimethyl-1H-indol-5-yl)-4-[(2S)-tetrahydrofuran-2-ylmethoxy]benzamide], `Cc1c(CN[C@H]2CC[C@](C)(O)CC2)n(C)c2ccc(NC(=O)c3ccc(OCC4CC4)cc3)cc12` [Example 42, 4-(cyclopropylmethoxy)-N-(2-{[(trans-4-hydroxy-4-methylcyclohexyl)amino]methyl}-1,3-dimethyl-1H-indol-5-yl)benzamide] is higher in melting point: 172 to 173 °C for the first, 191 °C for the second.

First: Cc1c(CNCC(C)(C)C)n(C)c2ccc(NC(=O)c3ccc(OCC4CC4)cc3)cc12 [Example 41, 4-(cyclopropylmethoxy)-N-(2-{[(2,2-dimethylpropyl)amino]methyl}-1,3-dimethyl-1H-indol-5-yl)benzamide]
Second: Cc1c(NC(=O)c2ccc(OCC3CC3)cc2)ccc2cc(CNCC(C)(C)C)[nH]c12 [Example 65, 4-(cyclopropylmethoxy)-N-(2-{[(2,2-dimethylpropyl)amino]methyl}-7-methyl-1H-indol-6-yl)benzamide]
The melting point of the first is lower: 169 to 170 °C for the first, 199 °C for the second.

First: Cc1c(NC(=O)c2ccc(OCC3CC3)cc2)ccc2[nH]c(CNCC3CCOCC3)cc12 [Example 43, 4-(cyclopropylmethoxy)-N-(4-methyl-2-{[(tetrahydro-2H-pyran-4-ylmethyl)amino]methyl}-1H-indol-5-yl)benzamide]
Second: Cc1c(NC(=O)c2ccc(OCC3CC3)cc2)ccc2cc(CNCC3CCOCC3)[nH]c12 [Example 66, 4-(cyclopropylmethoxy)-N-(7-methyl-2-{[(tetrahydro-2H-pyran-4-ylmethyl)amino]methyl}-1H-indol-6-yl)benzamide]
The melting point of the first is higher: 181 to 182 °C for the first, 167 to 168 °C for the second.

First: Cc1c(NC(=O)c2ccc(OCC3CC3)cc2)ccc2[nH]c(CNCC(C)(C)O)cc12 [Example 44, 4-(cyclopropylmethoxy)-N-(2-{[(2-hydroxy-2-methylpropyl)amino]methyl}-4-methyl-1H-indol-5-yl)benzamide]
Second: Cc1c(NC(=O)c2ccc(OC[C@@H]3CCCO3)cc2)ccc2[nH]c(CNCC(C)(C)O)cc12 [Example 48, N-(2-{[(2-hydroxy-2-methylpropyl)amino]methyl}-4-methyl-1H-indol-5-yl)-4-[(2S)-tetrahydrofuran-2-ylmethoxy]benzamide]
The melting point of the first is higher: 186 °C for the first, 169 to 170 °C for the second.

First: Cc1c(NC(=O)c2ccc(OCC3CC3)cc2)ccc2[nH]c(CNC3CCCC3)cc12 [Example 45, N-{2-[(cyclopentylamino)methyl]-4-methyl-1H-indol-5-yl}-4-(cyclopropylmethoxy)benzamide]
Second: Cc1c(NC(=O)c2ccc(OC[C@@H]3CCCO3)cc2)ccc2[nH]c(CNC3CCCC3)cc12 [Example 49, N-{2-[(cyclopentylamino)methyl]-4-methyl-1H-indol-5-yl}-4-[(2S)-tetrahydrofuran-2-ylmethoxy]benzamide]
The melting point of the first is higher: 207 to 208 °C for the first, 191 to 192 °C for the second.

`Cc1c(NC(=O)c2ccc(OC[C@@H]3CCCO3)cc2)ccc2c1cc(CNCC(C)(C)O)n2C` [Example 52, N-(2-{[(2-hydroxy-2-methylpropyl)amino]methyl}-1,4-dimethyl-1H-indol-5-yl)-4-[(2S)-tetrahydrofuran-2-ylmethoxy]benzamide] and `Cc1c(NC(=O)c2ccc(OC[C@@H]3CCCO3)cc2)ccc2c1cc(CNCC(C)C)n2C` [Example 54, N-(1,4-dimethyl-2-{[(2-methylpropyl)amino]methyl}-1H-indol-5-yl)-4-[(2S)-tetrahydrofuran-2-ylmethoxy]benzamide] cannot be ordered by melting point: 160 to 162 °C for the first, 162 °C for the second.

First: Cc1c(NC(=O)c2ccc(OC[C@@H]3CCCO3)cc2)ccc2c1cc(CNC1CCCC1)n2C [Example 56, N-{2-[(cyclopentylamino)methyl]-1,4-dimethyl-1H-indol-5-yl}-4-[(2S)-tetrahydrofuran-2-ylmethoxy]benzamide]
Second: Cc1c(NC(=O)c2ccc(OC[C@@H]3CCCO3)cc2)ccc2cc(CNC3CCCC3)[nH]c12 [Example 73, N-{2-[(cyclopentylamino)methyl]-7-methyl-1H-indol-6-yl}-4-[(2S)-tetrahydrofuran-2-ylmethoxy]benzamide]
The melting point of the first is higher: 189 °C for the first, 159 to 163 °C for the second.

Going from `CCCNCc1cc2c(C)c(NC(=O)c3ccc(OC[C@@H]4CCCO4)cc3)ccc2n1C` [Example 57, N-{1,4-dimethyl-2-[(propylamino)methyl]-1H-indol-5-yl}-4-[(2S)-tetrahydrofuran-2-ylmethoxy]benzamide] to `Cc1c(NC(=O)c2ccc(OC[C@@H]3CCCO3)cc2)ccc2c1cc(CN1CCC(C)(O)CC1)n2C` [Example 58, N-{2-[(4-hydroxy-4-methylpiperidin-1-yl)methyl]-1,4-dimethyl-1H-indol-5-yl}-4-[(2S)-tetrahydrofuran-2-ylmethoxy]benzamide], the melting point falls from 225 °C to 210 °C.

First: Cc1c(NC(=O)c2ccc(OC[C@@H]3CCCO3)cc2F)ccc2c1cc(CN[C@H]1CC[C@](C)(O)CC1)n2C [Example 59, 2-fluoro-N-(2-{[(trans-4-hydroxy-4-methylcyclohexyl)amino]methyl}-1,4-dimethyl-1H-indol-5-yl)-4-[(2S)-tetrahydrofuran-2-ylmethoxy]benzamide]
Second: Cc1c(NC(=O)c2ccc(OC[C@@H]3CCCO3)cc2F)ccc2c1cc(CNCC1CCOCC1)n2C [Example 62, N-(1,4-dimethyl-2-{[(tetrahydro-2H-pyran-4-ylmethyl)amino]methyl}-1H-indol-5-yl)-2-fluoro-4-[(2S)-tetrahydrofuran-2-ylmethoxy]benzamide]
The melting point of the first is lower: 124 °C for the first, 149 °C for the second.

First: Cc1c(NC(=O)c2ccc(OC[C@@H]3CCCO3)cc2F)ccc2c1cc(CNCC(C)C)n2C [Example 61, N-(1,4-dimethyl-2-{[(2-methylpropyl)amino]methyl}-1H-indol-5-yl)-2-fluoro-4-[(2S)-tetrahydrofuran-2-ylmethoxy]benzamide]
Second: Cc1c(NC(=O)c2ccc(OC[C@@H]3CCCO3)cc2F)ccc2cc(CNCC(C)(C)O)[nH]c12 [Example 76, 2-fluoro-N-(2-{[(2-hydroxy-2-methylpropyl)amino]methyl}-7-methyl-1H-indol-6-yl)-4-[(2S)-tetrahydrofuran-2-ylmethoxy]benzamide]
The melting point of the first is lower: 104 to 105 °C for the first, 148 to 149 °C for the second.

Compared with `Cc1c(NC(=O)c2ccc(OCC3CC3)cc2)ccc2cc(CNCC(C)C)[nH]c12` [Example 64, 4-(cyclopropylmethoxy)-N-(7-methyl-2-{[(2-methylpropyl)amino]methyl}-1H-indol-6-yl)benzamide], `Cc1c(NC(=O)c2ccc(OC[C@@H]3CCCO3)cc2)ccc2cc(CNCC(C)C)[nH]c12` [Example 72, N-(7-methyl-2-{[(2-methylpropyl)amino]methyl}-1H-indol-6-yl)-4-[(2S)-tetrahydrofuran-2-ylmethoxy]benzamide] is lower in melting point: 176 to 177 °C for the first, 159 °C for the second.

Going from `Cc1c(NC(=O)c2ccc(OCC3CC3)cc2)ccc2cc(CN3CCC(C)(O)CC3)[nH]c12` [Example 68, 4-(cyclopropylmethoxy)-N-{2-[(4-hydroxy-4-methylpiperidin-1-yl)methyl]-7-methyl-1H-indol-6-yl}benzamide] to `Cc1c(NC(=O)c2ccc(OC[C@@H]3CCCO3)cc2)ccc2cc(CNCC(C)(C)C)[nH]c12` [Example 69, N-(2-{[(2,2-dimethylpropyl)amino]methyl}-7-methyl-1H-indol-6-yl)-4-[(2S)-tetrahydrofuran-2-ylmethoxy]benzamide], the melting point falls from 195 °C to 168 °C.
